The values that follow come from patent US20230114728A1 (Venatorx Pharmaceuticals, Inc., priority 2019, published 2023).

Assay [1] deals with N. gonorrhoeae WHO G. Briefly: Liquid broth MIC in Fastidious broth. To be noted: Neisseria gonorrhoeae; N. gonorrhoeae strain WHO G; Fastidious broth; read-out: Minimum Inhibitory Concentration, N. gonorrhoeae WHO G. It is filed as cell-based. In a few lines:
(§1)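 Colonies were swabbed from chocolate agar after 24 h growth and standardised by optical density at 600 nm. Compounds were serially diluted twofold in Fastidious broth, and bacteria added to give 5×10^5 CFU/mL. After about 24 h at 36 °C in 5% CO2, the lowest concentration allowing under 10% growth was taken as MIC.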

For assay [2], the system named is N. gonorrhoeae FA1090. Briefly: Liquid broth MIC in Fastidious broth. Conditions: Neisseria gonorrhoeae; N. gonorrhoeae strain FA1090; Fastidious broth; read-out: Minimum Inhibitory Concentration, N. gonorrhoeae FA1090. It is filed as cell-based. In short, it runs like this:
as §1

Assay [3] concerns N. gonorrhoeae ATCC 49226. Briefly: Liquid broth MIC in Fastidious broth. It is filed as cell-based. Conditions: Neisseria gonorrhoeae, ATCC49226; N. gonorrhoeae strain ATCC 49226; Fastidious broth; read-out: Minimum Inhibitory Concentration, N. gonorrhoeae ATCC 49226. In short, it runs like this: as §1
The test system of assay [4] is N. gonorrhoeae H041. Briefly: Liquid broth MIC in Fastidious broth. It is filed as cell-based. Conditions: Neisseria gonorrhoeae, H041, read-out: Minimum Inhibitory Concentration, N. gonorrhoeae H041. In short, it runs like this:
as §1

For assay [5], the system named is N. gonorrhoeae WHO Q. Briefly: Liquid broth MIC in Fastidious broth. It is filed as cell-based. Conditions: Neisseria gonorrhoeae, read-out: Minimum Inhibitory Concentration, N. gonorrhoeae WHO Q. In short, it runs like this: as §1
The test system of assay [6] is N. gonorrhoeae WHO K. Briefly: Liquid broth MIC in Fastidious broth. To be noted: Neisseria gonorrhoeae, read-out: Minimum Inhibitory Concentration, N. gonorrhoeae WHO K. It is filed as cell-based. In a few lines: as §1
Assay [7] concerns N. gonorrhoeae WHO Z. Briefly: Liquid broth MIC in Fastidious broth. It is filed as cell-based. Conditions: Neisseria gonorrhoeae, read-out: Minimum Inhibitory Concentration, N. gonorrhoeae WHO Z. In short, it runs like this:
as §1

The target in assay [8] is T1, E. coli K12 PBP3 (Escherichia coli, UniProt P0AD68).
T1 construct: made in house
Briefly: biochemical. It is filed as binding. In a few lines: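 A. baumannii PBP2 (2.5 μM) and PBP3 (0.2 μM) were run in 25 mM Tris pH 8.0 buffer with Tween 20; E. coli PBP3 (1.5 μM) and N. gonorrhoeae PBP2 ([…]) in 50 mM Hepes pH 8.0 buffer.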

Assay [9] has as its target T2, P. aeruginosa PBP3 (Pseudomonas aeruginosa, UniProt G3XD46).
T2 construct: made in house
Briefly: Bocillin-FL fluorescence polarization competition binding assay, P. aeruginosa PBP3. To be noted: fluorescence polarization competition binding assay using Bocillin-FL. In a few lines:
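Inhibitor competition with Bocillin-FL for P. aeruginosa PBP3 was followed by fluorescence polarization on a Cytation3 (BioTek) reader, using g-factor 0.96, 490 nm excitation and 520 nm emission. The enzyme was at 0.75 μM and the probe at 0.1 μM in Hepes/NaCl/glycerol buffer, 80 μl per well. FP was recorded immediately after probe addition for up to 60 minutes. Potency was expressed as EC50, the concentration that reduces bound probe by 50%.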

Values after ≈ are worked out from the molar mass of the structure shown.

T1 sequence (P0AD68 1-577): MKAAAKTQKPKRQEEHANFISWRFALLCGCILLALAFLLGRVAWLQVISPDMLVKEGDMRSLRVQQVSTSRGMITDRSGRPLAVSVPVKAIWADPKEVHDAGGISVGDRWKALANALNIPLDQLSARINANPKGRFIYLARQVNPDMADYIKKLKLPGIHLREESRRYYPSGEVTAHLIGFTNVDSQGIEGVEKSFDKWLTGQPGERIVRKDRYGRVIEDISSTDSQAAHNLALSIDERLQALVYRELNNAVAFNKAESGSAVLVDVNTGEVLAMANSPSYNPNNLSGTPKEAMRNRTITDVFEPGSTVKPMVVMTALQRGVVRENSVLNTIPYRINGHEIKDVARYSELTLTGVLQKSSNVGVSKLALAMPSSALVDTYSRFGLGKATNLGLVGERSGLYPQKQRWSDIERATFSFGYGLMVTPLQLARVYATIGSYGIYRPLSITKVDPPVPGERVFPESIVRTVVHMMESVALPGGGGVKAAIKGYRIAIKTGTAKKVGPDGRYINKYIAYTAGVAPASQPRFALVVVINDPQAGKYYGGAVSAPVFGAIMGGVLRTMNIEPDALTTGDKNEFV
T2 sequence (G3XD46 whole entry): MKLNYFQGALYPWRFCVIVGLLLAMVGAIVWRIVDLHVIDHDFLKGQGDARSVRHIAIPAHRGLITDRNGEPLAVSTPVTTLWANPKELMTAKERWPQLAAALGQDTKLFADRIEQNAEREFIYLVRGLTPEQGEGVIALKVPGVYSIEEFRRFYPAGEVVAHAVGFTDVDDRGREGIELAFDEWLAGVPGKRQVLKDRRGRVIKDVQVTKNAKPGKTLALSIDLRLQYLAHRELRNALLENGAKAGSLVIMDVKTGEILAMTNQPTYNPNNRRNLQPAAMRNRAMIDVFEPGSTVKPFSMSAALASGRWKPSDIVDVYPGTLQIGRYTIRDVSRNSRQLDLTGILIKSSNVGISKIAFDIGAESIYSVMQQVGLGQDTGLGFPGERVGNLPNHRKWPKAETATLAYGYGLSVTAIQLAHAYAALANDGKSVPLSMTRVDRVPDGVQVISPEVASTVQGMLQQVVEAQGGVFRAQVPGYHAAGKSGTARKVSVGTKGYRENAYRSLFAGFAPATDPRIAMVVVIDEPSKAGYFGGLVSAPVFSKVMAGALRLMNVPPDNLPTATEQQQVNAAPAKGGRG

What is called EC50 is the concentration at which the effect is half-maximal. Take `CCN1CCN(C(=O)NC(C(=O)N[C@H]2Cc3cccc(C(=O)O)c3OB2O)c2c(Cl)cc(C(=O)O)cc2Cl)C(=O)C1=O` (stereo partly drawn) [Example 150, (3R)-3-(2-(4-carboxy-2,6-dichlorophenyl)-2-(4-ethyl-2,3-dioxopiperazine-1-carboxamido)acetamido)-2-hydroxy-3,4-dihydro-2H-benzo[e][1,2]oxaborinine-8-carboxylic acid]: the MIC in [1] is 16 to 32 µg/mL (≈ 25.8 to 51.5 µM); in assay [2], 4 to 8 µg/mL (≈ 6.44 to 12.9 µM); in assay [3], over 64 µg/mL; in assay [4] it was over 64 µg/mL; in [5], over 64 µg/mL; in assay [6] it was over 64 µg/mL. For the same compound, in assay [7], the MIC was over 64 µg/mL. This compound also gave an EC50 in assay [8] of 30 to 500 µM. Moreover, the “P. aeruginosa PBP3 Potency” value in assay [9] is “D (D represents a potency <10 μM)”.
For `NCCN1CCN(C(=O)NC(C(=O)N[C@H]2Cc3cccc(C(=O)O)c3OB2O)c2ccc(C(=O)O)c(Cl)c2)C(=O)C1=O` (stereo partly drawn) [Example 153, (3R)-3-(2-(4-(2-aminoethyl)-2,3-dioxopiperazine-1-carboxamido)-2-(4-carboxy-3-chlorophenyl)acetamido)-2-hydroxy-3,4-dihydro-2H-benzo[e][1,2]oxaborinine-8-carboxylic acid], the MIC in [1] is 4 to 8 µg/mL (≈ 6.65 to 13.3 µM); in assay [2], 1 to 2 µg/mL (≈ 1.66 to 3.32 µM); in assay [3], 16 to 32 µg/mL (≈ 26.6 to 53.2 µM); in [4], over 64 µg/mL; in [5] it was 16 to 32 µg/mL (≈ 26.6 to 53.2 µM); in assay [6], 16 to 32 µg/mL (≈ 26.6 to 53.2 µM). Also, in assay [7], the MIC is 16 to 32 µg/mL (≈ 26.6 to 53.2 µM). The EC50 in assay [8] is under 30 µM. Besides, the “P. aeruginosa PBP3 Potency” value in assay [9] is listed as “D (D represents a potency <10 μM)”.
`O=C(O)c1cccc2c1OB(O)[C@@H](NC(=O)C(NC(=O)N1CCNC1=O)c1c(F)cc(O)cc1F)C2` (stereo partly drawn) [Example 156, (3R)-3-(2-(2,6-difluoro-4-hydroxyphenyl)-2-(2-oxoimidazolidine-1-carboxamido)acetamido)-2-hydroxy-3,4-dihydro-2H-benzo[e][1,2]oxaborinine-8-carboxylic acid]: the MIC in [1] is 4 to 8 µg/mL (≈ 7.93 to 15.9 µM); in assay [2] it was 1 to 2 µg/mL (≈ 1.98 to 3.97 µM); in assay [3], 16 to 32 µg/mL (≈ 31.7 to 63.5 µM); in [4] it was over 64 µg/mL; in assay [5], over 64 µg/mL; in assay [6], over 64 µg/mL. Moreover, the MIC in assay [7] is over 64 µg/mL. The EC50 in [8] is under 30 µM. For the same compound, the “P. aeruginosa PBP3 Potency” value in assay [9] is “D (D represents a potency <10 μM)”.
For the compound `CCN1CCN(C(=O)NC(C(=O)N[C@H]2Cc3cccc(C(=O)O)c3OB2O)c2c(F)cc(C(=O)O)cc2F)C(=O)C1=O` (stereo partly drawn) [Example 157, (3R)-3-(2-(4-carboxy-2,6-difluorophenyl)-2-(4-ethyl-2,3-dioxopiperazine-1-carboxamido)acetamido)-2-hydroxy-3,4-dihydro-2H-benzo[e][1,2]oxaborinine-8-carboxylic acid], the MIC in assay [1] was 1 to 2 µg/mL (≈ 1.7 to 3.4 µM); in assay [2], under 0.125 µg/mL; in [3], 4 to 8 µg/mL (≈ 6.8 to 13.6 µM); in assay [4], 16 to 32 µg/mL (≈ 27.2 to 54.4 µM); in assay [5], 4 to 8 µg/mL (≈ 6.8 to 13.6 µM); in assay [6], 4 to 8 µg/mL (≈ 6.8 to 13.6 µM). The MIC in [7] was in the range of 4 to 8 µg/mL (≈ 6.8 to 13.6 µM). In addition, the EC50 in assay [8] was under 30 µM. The “P. aeruginosa PBP3 Potency” value in assay [9] is “D (D represents a potency <10 μM)”.
Turning to `CCN1CCN(C(=O)NC(C(=O)N[C@H]2Cc3cccc(C(=O)O)c3OB2O)c2cc(F)c(O)c(F)c2)C(=O)C1=O` (stereo partly drawn) [Example 160, (3R)-3-(2-(3,5-difluoro-4-hydroxyphenyl)-2-(4-ethyl-2,3-dioxopiperazine-1-carboxamido)acetamido)-2-hydroxy-3,4-dihydro-2H-benzo[e][1,2]oxaborinine-8-carboxylic acid], the MIC in assay [1] was 1 to 2 µg/mL (≈ 1.78 to 3.57 µM); in [2], under 0.125 µg/mL; in assay [3] it was 4 to 8 µg/mL (≈ 7.14 to 14.3 µM); in assay [4], 16 to 32 µg/mL (≈ 28.6 to 57.1 µM); in assay [5] it was 4 to 8 µg/mL (≈ 7.14 to 14.3 µM); in assay [6], 16 to 32 µg/mL (≈ 28.6 to 57.1 µM). For the same compound, the MIC in assay [7] lay within 4 to 8 µg/mL (≈ 7.14 to 14.3 µM). Also, in assay [8], the EC50 is under 30 µM. Moreover, in assay [9], the “P. aeruginosa PBP3 Potency” value is “D (D represents a potency <10 μM)”.
With `NCCN1CCN(C(=O)NC(C(=O)N[C@H]2Cc3cccc(C(=O)O)c3OB2O)c2cc(F)c(O)c(Cl)c2)C(=O)C1=O` (stereo partly drawn) [Example 163, (3R)-3-(2-(4-(2-aminoethyl)-2,3-dioxopiperazine-1-carboxamido)-2-(3-chloro-5-fluoro-4-hydroxyphenyl)acetamido)-2-hydroxy-3,4-dihydro-2H-benzo[e][1,2]oxaborinine-8-carboxylic acid], the MIC in assay [1] is 16 to 32 µg/mL (≈ 27 to 54.1 µM); in [2], 1 to 2 µg/mL (≈ 1.69 to 3.38 µM); in assay [3], over 64 µg/mL; in assay [4], over 64 µg/mL; in assay [5], over 64 µg/mL; in [6], over 64 µg/mL. Besides, the MIC in assay [7] is over 64 µg/mL. Also, the EC50 in assay [8] is under 30 µM. Moreover, the “P. aeruginosa PBP3 Potency” value in [9] is “D (D represents a potency <10 μM)”.
Take `CCN1CCN(C(=O)NC(C(=O)N[C@H]2Cc3cccc(C(=O)O)c3OB2O)c2cc(F)c(O)c(Cl)c2)C(=O)C1=O` (stereo partly drawn) [Example 164, (3R)-3-(2-(3-chloro-5-fluoro-4-hydroxyphenyl)-2-(4-ethyl-2,3-dioxopiperazine-1-carboxamido)acetamido)-2-hydroxy-3,4-dihydro-2H-benzo[e][1,2]oxaborinine-8-carboxylic acid]: the MIC fell in the range of 1 to 2 µg/mL (≈ 1.73 to 3.47 µM) in [1]; 0.25 to 0.5 µg/mL (≈ 0.433 to 0.867 µM) in assay [2]; 4 to 8 µg/mL (≈ 6.94 to 13.9 µM) in [3]; 16 to 32 µg/mL (≈ 27.7 to 55.5 µM) in [4]; 16 to 32 µg/mL (≈ 27.7 to 55.5 µM) in assay [5]; 16 to 32 µg/mL (≈ 27.7 to 55.5 µM) in [6]. In addition, in [7], the MIC is 4 to 8 µg/mL (≈ 6.94 to 13.9 µM). In assay [8], this compound displayed an EC50 of under 30 µM. The “P. aeruginosa PBP3 Potency” value in [9] was “D (D represents a potency <10 μM)”.
Regarding `CCN1CCN(C(=O)NC(C(=O)N[C@H]2Cc3cccc(C(=O)O)c3OB2O)c2cc(Cl)c(O)c(Cl)c2)C(=O)C1=O` (stereo partly drawn) [Example 171, (3R)-3-(2-(3,5-dichloro-4-hydroxyphenyl)-2-(4-ethyl-2,3-dioxopiperazine-1-carboxamido)acetamido)-2-hydroxy-3,4-dihydro-2H-benzo[e][1,2]oxaborinine-8-carboxylic acid], the MIC in assay [1] was in the range of 4 to 8 µg/mL (≈ 6.74 to 13.5 µM); in assay [2] it was 0.25 to 0.5 µg/mL (≈ 0.421 to 0.843 µM); in assay [3] it was 4 to 8 µg/mL (≈ 6.74 to 13.5 µM); in [4], 16 to 32 µg/mL (≈ 27 to 53.9 µM); in assay [5], 16 to 32 µg/mL (≈ 27 to 53.9 µM); in [6], 16 to 32 µg/mL (≈ 27 to 53.9 µM). Moreover, the MIC in assay [7] was in the range of 4 to 8 µg/mL (≈ 6.74 to 13.5 µM). This compound also yielded an EC50 in assay [8] of under 30 µM. The “P. aeruginosa PBP3 Potency” value in assay [9] is “D (D represents a potency <10 μM)”.
Regarding `CCN1CCN(C(=O)NC(C(=O)N[C@H]2Cc3cccc(C(=O)O)c3OB2O)c2cc(F)c(O)c(F)c2F)C(=O)C1=O` (stereo partly drawn) [Example 172, (3R)-3-(2-(4-ethyl-2,3-dioxopiperazine-1-carboxamido)-2-(2,3,5-trifluoro-4-hydroxyphenyl)acetamido)-2-hydroxy-3,4-dihydro-2H-benzo[e][1,2]oxaborinine-8-carboxylic acid], the MIC in assay [1] was 0.25 to 0.5 µg/mL (≈ 0.432 to 0.865 µM); in assay [2], under 0.125 µg/mL; in [3], 1 to 2 µg/mL (≈ 1.73 to 3.46 µM); in assay [4] it was 16 to 32 µg/mL (≈ 27.7 to 55.3 µM); in assay [5], 4 to 8 µg/mL (≈ 6.92 to 13.8 µM); in assay [6], 4 to 8 µg/mL (≈ 6.92 to 13.8 µM). In addition, the MIC in assay [7] fell in the range of 1 to 2 µg/mL (≈ 1.73 to 3.46 µM). This compound also gave an EC50 in [8] of under 30 µM. For the same compound, the “P. aeruginosa PBP3 Potency” value in [9] is recorded as “D (D represents a potency <10 μM)”.
Consider `CCN1CCN(C(=O)NC(C(=O)N[C@H]2Cc3cccc(C(=O)O)c3OB2O)c2ccc(O)c(F)c2F)C(=O)C1=O` (stereo partly drawn) [Example 173], for which the MIC is 1 to 2 µg/mL (≈ 1.78 to 3.57 µM) in [1]; under 0.125 µg/mL in assay [2]; 1 to 2 µg/mL (≈ 1.78 to 3.57 µM) in [3]; 16 to 32 µg/mL (≈ 28.6 to 57.1 µM) in [4]; 16 to 32 µg/mL (≈ 28.6 to 57.1 µM) in assay [5]; 16 to 32 µg/mL (≈ 28.6 to 57.1 µM) in assay [6]. Further, in assay [7], the MIC fell in the range of 4 to 8 µg/mL (≈ 7.14 to 14.3 µM). The same compound had an EC50 in [8] of under 30 µM. For the same compound, the “P. aeruginosa PBP3 Potency” value in assay [9] is on record as “D (D represents a potency <10 μM)”.
